Laboratory results published in paper PMC7490411 (Signal Transduction and Targeted Therapy, 2020).

How the values were obtained:
Assay in all cases: KINOMEscan
Assay type in all cases: binding
Details in all cases: 1000 nM
[1] = test system: ABL1(H396P)-phosphorylated
ABL1-phosphorylated = test system: ABL1-phosphorylated
AXL = test system: AXL
BMPR1B = test system: BMPR1B
CAMK2A = test system: CAMK2A
CDC2L1 = test system: CDC2L1
CDK2 = test system: CDK2
CLK1 = test system: CLK1
CSNK1G2 = test system: CSNK1G2
DDR1 = test system: DDR1
DYRK1A = test system: DYRK1A
GSK3A = test system: GSK3A
HIPK1 = test system: HIPK1
LOK = test system: LOK
LTK = test system: LTK
MAST1 = test system: MAST1
MET(M1250T) = test system: MET(M1250T)
MET(Y1235D) = test system: MET(Y1235D)
MST1R = test system: MST1R
MST3 = test system: MST3
PIP5K2B = test system: PIP5K2B
PIP5K2C = test system: PIP5K2C
ROS1 = test system: ROS1
[2] = test system: RPS6KA5(Kin.Dom.1-N-terminal)
TAOK2 = test system: TAOK2
TIE1 = test system: TIE1
YANK2 = test system: YANK2

C=CC(=O)Nc1cc(Nc2cc(-c3cccc(NC(=O)c4cc5c(s4)CCCC5)c3C)cn(C)c2=O)ccc1N1CCN(CC)CC1 [CHMFL-BTK-85]
Percent Control [1]: 85%
Percent Control (ABL1-phosphorylated): 72%
Percent Control (AXL): 100%
Percent Control (BMPR1B): 100%
Percent Control (CAMK2A): 82%
Percent Control (CDC2L1): 100%
Percent Control (CDK2): 85%
Percent Control (CLK1): 88%
Percent Control (CSNK1G2): 98%
Percent Control (DDR1): 100%
Percent Control (DYRK1A): 100%
Percent Control (GSK3A): 94%
Percent Control (HIPK1): 75%
Percent Control (LOK): 100%
Percent Control (LTK): 100%
Percent Control (MAST1): 100%
Percent Control (MET(M1250T)): 95%
Percent Control (MET(Y1235D)): 97%
Percent Control (MST1R): 98%
Percent Control (MST3): 66%
Percent Control (PIP5K2B): 100%
Percent Control (PIP5K2C): 85%
Percent Control (ROS1): 98%
Percent Control [2]: 90%
Percent Control (TAOK2): 96%
Percent Control (TIE1): 87%
Percent Control (YANK2): 77%
